In the test the target is T1, SIRT1 (Homo sapiens, UniProt Q96EB6).
T1 sequence (Q96EB6 1-747): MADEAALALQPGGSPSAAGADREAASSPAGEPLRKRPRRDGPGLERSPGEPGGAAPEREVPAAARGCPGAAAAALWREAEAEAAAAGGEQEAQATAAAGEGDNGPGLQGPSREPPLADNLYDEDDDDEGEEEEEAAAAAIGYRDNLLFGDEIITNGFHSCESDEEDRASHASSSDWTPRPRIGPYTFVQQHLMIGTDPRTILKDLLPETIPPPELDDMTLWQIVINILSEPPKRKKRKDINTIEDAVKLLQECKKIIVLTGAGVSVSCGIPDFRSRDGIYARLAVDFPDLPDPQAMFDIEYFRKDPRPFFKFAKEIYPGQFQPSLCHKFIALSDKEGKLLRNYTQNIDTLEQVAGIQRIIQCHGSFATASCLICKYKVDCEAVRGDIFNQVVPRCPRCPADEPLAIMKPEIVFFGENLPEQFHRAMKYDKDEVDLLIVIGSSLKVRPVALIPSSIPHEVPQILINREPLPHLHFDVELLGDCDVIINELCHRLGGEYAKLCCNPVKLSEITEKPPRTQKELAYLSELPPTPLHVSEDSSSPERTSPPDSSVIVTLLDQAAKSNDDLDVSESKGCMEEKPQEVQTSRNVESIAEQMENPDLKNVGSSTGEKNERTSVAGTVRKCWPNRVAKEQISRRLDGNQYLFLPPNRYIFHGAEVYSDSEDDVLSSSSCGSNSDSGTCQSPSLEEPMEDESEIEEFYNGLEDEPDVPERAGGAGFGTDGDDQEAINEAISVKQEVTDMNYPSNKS
As to the kind of experiment: Mass spectrometry based SIRT1 deacetylase activation assay. The note with it: for Emax: 25 min, percent maximum fold activation of SIRT1, read-out: SIRT1 % FOLD ACT.; for EC1.5 (concentration giving 150% activation): concentration of test compound that results in 150% activation of SIRT1. Format: biochemical. The source says: A mass spectrometry based assay was used to identify modulators of SIRT1 activity. The mass spectrometry based assay utilizes a peptide having 20 amino acid residues as follows: Ac-EE-K(biotin)-GQSTSSHSK(Ac)NleSTEG-K(5TMR)-EE-NH2 (SEQ ID NO: 1) wherein K(Ac) is an acetylated lysine residue and Nle is a norleucine. The peptide is labeled with the fluorophore 5TMR (excitation 540 nm/emission 580 nm) at the C-terminus. The sequence of the peptide substrate is based on p53 with several modifications. In addition, the methionine residue naturally present in the sequence was replaced with the norleucine because the methionine may be susceptible to oxidation during synthesis and purification.
The mass spectrometry assay is conducted as follows: 0.5 μM peptide substrate and 120 μM βNAD^+ is incubated with 10 nM SIRT1 for 25 minutes at 25° C. in a reaction buffer (50 mM Tris-acetate pH 8, 137 mM NaCl, 2.7 mM KCl, 1 mM MgCl2, 5 mM DTT, 0.05% BSA). Test compounds may be added to the reaction as described above. The SirT1 gene is cloned into a T7-promoter containing vector and transformed into BL21(DE3). After the 25 minute incubation with SIRT1, 10 μL of 10% formic acid is added to stop the reaction. Reactions are sealed and frozen for later mass spec analysis. Determination of the mass of the substrate peptide allows for precise determination of the degree of acetylation (i.e. starting material) as compared to deacetylated peptide (product).
A control for inhibition of sirtuin activity is conducted by adding 1 μL of 500 mM nicotinamide as a negative control at the start of the reaction (e.g., permits determination of maximum sirtuin inhibition). A control for activation of sirtuin activity is conducted using 10 nM of sirtuin protein, with 1 μL of DMSO in place of compound, to determine the amount of deacetylation of the substrate at a given timepoint within the linear range of the assay. This timepoint is the same as that used for test compounds and, within the linear range, the endpoint represents a change in velocity.
For the above assay, SIRT1 protein was expressed and purified as follows. The SirT1 gene was cloned into a T7-promoter containing vector and transformed into BL21(DE3). The protein was expressed by induction with 1 mM IPTG as an N-terminal His-tag fusion protein at 18° C. overnight and harvested at 30,000×g. Cells were lysed with lysozyme in lysis buffer (50 mM Tris-HCl, 2 mM Tris[2-carboxyethyl]phosphine (TCEP), 10 μM ZnCl2, 200 mM NaCl) and further treated with sonication for 10 min for complete lysis. The protein was purified over a Ni-NTA column (Amersham) and fractions containing pure protein were pooled, concentrated and run over a sizing column (Sephadex S200 26/60 global). The peak containing soluble protein was collected and run on an Ion-exchange column (MonoQ). Gradient elution (200 mM-500 mM NaCl) yielded pure protein. This protein was concentrated and dialyzed against dialysis buffer (20 mM Tris-HCl, 2 mM TCEP) overnight. The protein was aliquoted and frozen at −80° C. until further use.
Sirtuin modulating compounds that activated SIRT1 were identified using the assay described above and are shown below in Table 1. The EC1.5 values represent the concentration of test compounds that result in 150% activation of SIRT1. The EC1.5 values for the activating compounds are represented by A (EC1.5 <5 μM), B (EC1.5 5-50 μM), or C (EC1.5 >50 μM). The percent maximum fold activation is represented by A (Fold activation >150%) or B (Fold Activation <150%).

The source of these data is patent US20130190309A1, “PHTHALAZINONE AND RELATED ANALOGS AS SIRTUIN MODULATORS” (priority 2009, published 2013).

As to `O=C(Nc1cccc2cnn(-c3cccc(C(F)(F)F)c3)c(=O)c12)c1cccc(CN2CCOCC2)n1` [Compound 106, 6-(morpholinomethyl)-N-(4-oxo-3-(3-(trifluoromethyl)phenyl)-3,4-dihydrophthalazin-5-yl)picolinamide], the Emax is above 150% and the EC1.5 (concentration giving 150% activation) was below 5 µM.

Turning to `O=C(Nc1cccc2c1C(=O)N(c1cccc(C(F)(F)F)c1)CC2)c1cnccn1` [Compound 101, N-(1-oxo-2-(3-(trifluoromethyl)phenyl)-1,2,3,4-tetrahydroisoquinolin-8-yl)pyrazine-2-carboxamide], the Emax is above 150% and the EC1.5 (concentration giving 150% activation) is 5 to 50 µM.

As for `O=C(Nc1cccc2cnn(-c3cccc(OC(F)(F)F)c3)c(=O)c12)c1cccc(OCC(O)CO)n1` (centres unmarked) [Compound 107, 6-(2,3-dihydroxypropoxy)-N-(4-oxo-3-(3-(trifluoromethoxy)phenyl)-3,4-dihydrophthalazin-5-yl)picolinamide], the Emax was above 150% and the EC1.5 (concentration giving 150% activation) is below 5 µM.

On to `O=C(Nc1cccc2cnn(-c3cccc(C(F)(F)F)c3)c(=O)c12)c1cccc(OCC(O)CO)n1` (centres unmarked) [Compound 105, 6-(2,3-dihydroxypropoxy)-N-(4-oxo-3-(3-(trifluoromethyl)phenyl)-3,4-dihydrophthalazin-5-yl)picolinamide], for which the Emax was above 150% and the EC1.5 (concentration giving 150% activation) is below 5 µM.

In turn, `O=C(Nc1cccc2cnn(-c3cccc(C(F)(F)F)c3)c(=O)c12)C1CCOCC1` [Compound 104] yielded an EC1.5 (concentration giving 150% activation) above 50 µM.

For `O=C(Nc1cccc2cnn(-c3cccc(C(F)(F)F)c3)c(=O)c12)c1cscn1` [Compound 102], the Emax is below 150% and the EC1.5 (concentration giving 150% activation) is below 5 µM.

On to `O=C(Nc1cccc2cnn(-c3cccc(C(F)(F)F)c3)c(=O)c12)c1cnccn1` [Compound 103, N-(4-oxo-3-(3-(trifluoromethyl)phenyl)-3,4-dihydrophthalazin-5-yl)pyrazine-2-carboxamide], for which the Emax was above 150% and the EC1.5 (concentration giving 150% activation) was in the range of 5 to 50 µM.

Consider `O=C(Nc1cccc2c1C(=O)N(c1cccc(C(F)(F)F)c1)CC2)c1cscn1` [Compound 100], for which the Emax was above 150% and the EC1.5 (concentration giving 150% activation) fell in the range of 5 to 50 µM.

For `O=C(Nc1cccc2cnn(-c3cccc(OC(F)(F)F)c3)c(=O)c12)c1cccc(CN2CCOCC2)n1` [Compound 108, 6-(morpholinomethyl)-N-(4-oxo-3-(3-(trifluoromethoxy)phenyl)-3,4-dihydrophthalazin-5-yl)picolinamide], the Emax is above 150% and the EC1.5 (concentration giving 150% activation) was below 5 µM.
